Legend:
Assay type in all cases: binding
Conditions in all cases: His-tagged TEAD protein, biotinylated lipid pocket probe
TEAD3 = TEAD3 (Homo sapiens, UniProt Q99594); experiment: TEAD lipid pocket TR-FRET (Lipid HTRF) competition assay, TEAD3
Procedure: (§1) His-tagged TEAD proteins are pre-incubated with TEAD project compounds for 30 minutes at room temperature. Biotinylated lipid pocket probes are then added to the TEAD/Compound mixture and incubated for 60 minutes at room temperature. The lipid pocket probe competes with the test compound for the TEAD lipid pocket until equilibrium is reached. After 60 minutes, Europium labelled anti-His (Perkin Elmer #ADO 110) and XL665 labelled streptavidin (CIS Bio 610SAXAC) are added to the TEAD/test compound/lipid pocket mixture and incubated for 30 minutes. TR-FRET values are then measured using an EnVision multi-label plate reader (Perkin Elmer Cat #2104-1A.) If the lipid pocket probe binds to TEAD as expected, a TR-FRET signal results from the proximity of Tani-His Eu and XL665. If a TEAD lipid pocket binder such as binds and displaces the lipid pocket probe, the disruption of the TEAD:probe interaction results in a decrease in TR-FRET signal. The potency of compounds as TEAD lipid pocket binders is determined by IC50 value generated using a non-linear 4 parameter curve fit. This assay format enables more sensitive determinations of lipid pocket affinity than the aforementioned TEAD lipid pocket FP assay due to the decreased concentration of TEAD protein required for the TR-FRET assay format.

TEAD1 = TEAD1 (Homo sapiens, UniProt P28347); experiment: TEAD lipid pocket TR-FRET (Lipid HTRF) competition assay, TEAD1
Procedure: as §1

TEAD4 = TEAD4 (Homo sapiens, UniProt Q15561); experiment: TEAD lipid pocket TR-FRET (Lipid HTRF) competition assay, TEAD4
Procedure: as §1

TEAD2 = TEAD2 (Homo sapiens, UniProt Q15562); experiment: TEAD lipid pocket TR-FRET (Lipid HTRF) competition assay, TEAD2
Procedure: as §1

TEAD1, sequence (P28347 whole entry, species assumed): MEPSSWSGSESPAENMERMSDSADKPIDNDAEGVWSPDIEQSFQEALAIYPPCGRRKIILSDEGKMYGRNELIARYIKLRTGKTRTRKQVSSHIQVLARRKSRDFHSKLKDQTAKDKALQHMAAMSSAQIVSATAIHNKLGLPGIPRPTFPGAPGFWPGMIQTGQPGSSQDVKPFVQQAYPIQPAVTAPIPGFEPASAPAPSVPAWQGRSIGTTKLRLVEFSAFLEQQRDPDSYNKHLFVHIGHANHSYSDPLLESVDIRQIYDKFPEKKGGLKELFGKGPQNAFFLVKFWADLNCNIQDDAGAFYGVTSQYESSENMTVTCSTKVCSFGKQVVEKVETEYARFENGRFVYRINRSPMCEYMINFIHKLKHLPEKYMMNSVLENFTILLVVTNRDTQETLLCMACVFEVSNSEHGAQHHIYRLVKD
TEAD3, sequence (Q99594 whole entry, species assumed): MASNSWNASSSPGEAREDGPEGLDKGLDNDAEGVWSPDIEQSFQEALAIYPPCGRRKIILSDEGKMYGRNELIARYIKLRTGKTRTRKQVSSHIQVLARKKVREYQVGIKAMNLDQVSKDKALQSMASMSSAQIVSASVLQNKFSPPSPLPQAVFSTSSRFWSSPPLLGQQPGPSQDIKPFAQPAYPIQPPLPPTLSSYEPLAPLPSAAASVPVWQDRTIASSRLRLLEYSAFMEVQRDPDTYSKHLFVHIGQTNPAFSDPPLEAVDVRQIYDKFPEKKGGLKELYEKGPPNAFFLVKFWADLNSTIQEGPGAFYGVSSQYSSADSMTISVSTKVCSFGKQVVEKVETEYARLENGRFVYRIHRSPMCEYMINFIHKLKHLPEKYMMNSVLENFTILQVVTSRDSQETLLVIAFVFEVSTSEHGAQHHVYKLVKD
TEAD2, sequence (Q15562 whole entry, species assumed): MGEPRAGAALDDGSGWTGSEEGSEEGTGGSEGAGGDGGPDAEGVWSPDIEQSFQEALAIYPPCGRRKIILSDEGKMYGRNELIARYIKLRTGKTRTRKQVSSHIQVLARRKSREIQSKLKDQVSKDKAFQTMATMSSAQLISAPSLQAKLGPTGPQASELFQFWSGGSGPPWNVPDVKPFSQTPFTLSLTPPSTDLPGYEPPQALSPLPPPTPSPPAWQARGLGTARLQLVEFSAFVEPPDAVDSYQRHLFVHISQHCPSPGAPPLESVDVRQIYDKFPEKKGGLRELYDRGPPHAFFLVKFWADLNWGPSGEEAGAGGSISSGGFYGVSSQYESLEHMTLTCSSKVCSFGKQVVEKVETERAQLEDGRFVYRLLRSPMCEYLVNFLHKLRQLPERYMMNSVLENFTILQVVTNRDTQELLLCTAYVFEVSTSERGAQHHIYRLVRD
TEAD4, sequence (Q15561 whole entry, species assumed): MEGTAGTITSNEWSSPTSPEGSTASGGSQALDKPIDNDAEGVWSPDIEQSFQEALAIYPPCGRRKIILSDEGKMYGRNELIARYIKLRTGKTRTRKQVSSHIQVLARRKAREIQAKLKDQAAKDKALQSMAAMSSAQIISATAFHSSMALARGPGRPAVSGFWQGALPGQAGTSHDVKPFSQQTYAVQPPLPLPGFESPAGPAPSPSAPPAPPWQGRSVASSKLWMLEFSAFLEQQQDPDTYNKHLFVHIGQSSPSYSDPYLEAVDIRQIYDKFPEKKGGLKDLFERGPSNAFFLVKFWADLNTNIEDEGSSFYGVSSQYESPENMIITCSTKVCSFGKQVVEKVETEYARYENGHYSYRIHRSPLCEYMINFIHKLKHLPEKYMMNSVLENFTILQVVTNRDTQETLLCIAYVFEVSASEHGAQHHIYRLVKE

SMILES | IC50 (TEAD3) | IC50 (TEAD1) | IC50 (TEAD4) | IC50 (TEAD2)
COc1cnc(C(=O)NCc2cccc(CC(=O)N(C)CCCCOc3ccc4c(c3)C(=O)N(C3CCC(=O)NC3=O)C4=O)c2)cc1/C=C/[C@H]1CC[C@H](C(F)(F)F)CC1 (stereo partly drawn) [Compound 1, N-(3-(2-((4-((2-(2,6-dioxopiperidin-3-yl)-1,3-dioxoisoindolin-5-yl)oxy)butyl)(methyl)amino)-2-oxoethyl)benzyl)-5-methoxy-4-((E)-2-(trans-4-(trifluoromethyl)cyclohexyl)vinyl)picolinamide] | 6000 nM | 650 nM | 90 nM | 230 nM
COc1cnc(C(=O)NCc2cccc(CC(=O)N(C)CCOCCOc3ccc4c(c3)C(=O)N(C3CCC(=O)NC3=O)C4=O)c2)cc1/C=C/[C@H]1CC[C@H](C(F)(F)F)CC1 (stereo partly drawn) [Compound 5, N-(3-(2-((2-(2-((2-(2,6-Dioxopiperidin-3-yl)-1,3-dioxoisoindolin-5-yl)oxy)ethoxy)ethyl)(methyl)amino)-2-oxoethyl)benzyl)-5-methoxy-4-((E)-2-(trans-4-(trifluoromethyl)cyclohexyl)vinyl)picolinamide] | 4000 nM | 510 nM | 110 nM | 180 nM
COc1cnc(C(=O)NCc2cccc(CC(=O)N(C)CCOCCOCCOCCOCCOCCOc3ccc4c(c3)C(=O)N(C3CCC(=O)NC3=O)C4=O)c2)cc1/C=C/[C@H]1CC[C@H](C(F)(F)F)CC1 (stereo partly drawn) [Compound 7, N-(3-(20-((2-(2,6-Dioxopiperidin-3-yl)-1,3-dioxoisoindolin-5-yl)oxy)-3-methyl-2-oxo-6,9,12,15,18-pentaoxa-3-azaicosyl)benzyl)-5-methoxy-4-((E)-2-(trans-4-(trifluoromethyl)cyclohexyl)vinyl)picolinamide] | 2000 nM | 360 nM | 60 nM | 110 nM
COc1cnc(C(=O)NCc2cccc(CC(=O)N(C)CCCCCCCOc3ccc4c(c3)C(=O)N(C3CCC(=O)NC3=O)C4=O)c2)cc1/C=C/[C@H]1CC[C@H](C(F)(F)F)CC1 (stereo partly drawn) [Compound 9, N-(3-(2-((7-((2-(2,6-Dioxopiperidin-3-yl)-1,3-dioxoisoindolin-5-yl)oxy)heptyl)(methyl)amino)-2-oxoethyl)benzyl)-5-methoxy-4-((E)-2-(trans-4-(trifluoromethyl)cyclohexyl)vinyl)picolinamide] | 5370 nM | 1300 nM | 320 nM | 650 nM
COc1cnc(C(=O)NCc2cccc(CC(=O)NCCCCCCC(=O)N[C@H](C(=O)N3C[C@H](O)C[C@H]3C(=O)NCc3ccc(-c4scnc4C)cc3)C(C)(C)C)c2)cc1/C=C/[C@H]1CC[C@H](C(F)(F)F)CC1 [Compound 12, N-(3-(2-((7-(((S)-1-((2S,4R)-4-Hydroxy-2-((4-(4-methylthiazol-5-yl)benzyl)carbamoyl)pyrrolidin-1-yl)-3,3-dimethyl-1-oxobutan-2-yl)amino)-7-oxoheptyl)amino)-2-oxoethyl)benzyl)-5-methoxy-4-((E)-2-(trans-4-(trifluoromethyl)cyclohexyl)vinyl)picolinamide] | 5900 nM | 1320 nM | 280 nM | 690 nM
COc1cnc(C(=O)NCc2cccc(CC(=O)NCCCCCCCCC(=O)N[C@H](C(=O)N3C[C@H](O)C[C@H]3C(=O)NCc3ccc(-c4scnc4C)cc3)C(C)(C)C)c2)cc1/C=C/[C@H]1CC[C@H](C(F)(F)F)CC1 [Compound 13, N-(3-(2-((9-(((S)-1-((2S,4R)-4-Hydroxy-2-((4-(4-methylthiazol-5-yl)benzyl)carbamoyl)pyrrolidin-1-yl)-3,3-dimethyl-1-oxobutan-2-yl)amino)-9-oxononyl)amino)-2-oxoethyl)benzyl)-5-methoxy-4-((E)-2-(trans-4-(trifluoromethyl)cyclohexyl)vinyl)picolinamide] | 4030 nM | 980 nM | 220 nM | 460 nM
COc1cnc(C(=O)NCc2cccc(CC(=O)NCCOCCOCC(=O)N[C@H](C(=O)N3C[C@H](O)C[C@H]3C(=O)NCc3ccc(-c4scnc4C)cc3)C(C)(C)C)c2)cc1/C=C/[C@H]1CC[C@H](C(F)(F)F)CC1 [Compound 14, N-(3-((S)-13-((2S,4R)-4-Hydroxy-2-((4-(4-methylthiazol-5-yl)benzyl)carbamoyl)pyrrolidine-1-carbonyl)-14,14-dimethyl-2,11-dioxo-6,9-dioxa-3,12-diazapentadecyl)benzyl)-5-methoxy-4-((E)-2-(trans-4-(trifluoromethyl)cyclohexyl)vinyl)picolinamide] | 3830 nM | 720 nM | 170 nM | 410 nM

The remaining compounds from weak to strong by IC50 (TEAD3), led by results:

IC50 (TEAD3) | IC50 (TEAD1) | IC50 (TEAD4) | IC50 (TEAD2) | SMILES
50000 nM | 18800 nM | 470 nM | 4800 nM | COc1cnc(C(=O)NCc2cccc(CC(=O)N(C)CCCCCOc3ccc4c(c3)C(=O)N(C3CCC(=O)NC3=O)C4=O)c2)cc1/C=C/[C@H]1CC[C@H](C(F)(F)F)CC1 (stereo partly drawn) [Compound 10, N-(3-(2-((5-((2-(2,6-Dioxopiperidin-3-yl)-1,3-dioxoisoindolin-5-yl)oxy)pentyl)(methyl)amino)-2-oxoethyl)benzyl)-5-methoxy-4-((E)-2-(trans-4-(trifluoromethyl)cyclohexyl)vinyl)picolinamide]
30000 nM | 1150 nM | 70 nM | 180 nM | COc1cnc(C(=O)NCc2cccc(CC(=O)N(C)CCOCCOCCOc3ccc4c(c3)C(=O)N(C3CCC(=O)NC3=O)C4=O)c2)cc1/C=C/[C@H]1CC[C@H](C(F)(F)F)CC1 (stereo partly drawn) [Compound 6, N-(3-(2-((2-(2-(2-((2-(2,6-Dioxopiperidin-3-yl)-1,3-dioxoisoindolin-5-yl)oxy)ethoxy)ethoxy)ethyl)(methyl)amino)-2-oxoethyl)benzyl)-5-methoxy-4-((E)-2-(trans-4-(trifluoromethyl)cyclohexyl)vinyl)picolinamide]
18800 nM | 5750 nM | 400 nM | 1150 nM | COc1cnc(C(=O)NCc2cccc(CC(=O)N(C)CCCCCCOc3ccc4c(c3)C(=O)N(C3CCC(=O)NC3=O)C4=O)c2)cc1/C=C/[C@H]1CC[C@H](C(F)(F)F)CC1 (stereo partly drawn) [Compound 2, N-(3-(2-((6-((2-(2,6-Dioxopiperidin-3-yl)-1,3-dioxoisoindolin-5-yl)oxy)hexyl)(methyl)amino)-2-oxoethyl)benzyl)-5-methoxy-4-((E)-2-(trans-4-(trifluoromethyl)cyclohexyl)vinyl)picolinamide]
8200 nM | 720 nM | 180 nM | 290 nM | COc1cnc(C(=O)NCc2cccc(CC(=O)N(C)CCCOc3ccc4c(c3)C(=O)N(C3CCC(=O)NC3=O)C4=O)c2)cc1/C=C/[C@H]1CC[C@H](C(F)(F)F)CC1 (stereo partly drawn) [Compound 8, N-(3-(2-((3-((2-(2,6-Dioxopiperidin-3-yl)-1,3-dioxoisoindolin-5-yl)oxy)propyl)(methyl)amino)-2-oxoethyl)benzyl)-5-methoxy-4-((E)-2-(trans-4-(trifluoromethyl)cyclohexyl)vinyl)picolinamide]
4800 nM | 300 nM | 60 nM | 130 nM | COc1cnc(C(=O)NCc2cccc(CC(=O)N(C)CCOCCOCCOCCOc3ccc4c(c3)C(=O)N(C3CCC(=O)NC3=O)C4=O)c2)cc1/C=C/[C@H]1CC[C@H](C(F)(F)F)CC1 (stereo partly drawn) [Compound 3, N-(3-(14-((2-(2,6-Dioxopiperidin-3-yl)-1,3-dioxoisoindolin-5-yl)oxy)-3-methyl-2-oxo-6,9,12-trioxa-3-azatetradecyl)benzyl)-5-methoxy-4-((E)-2-(trans-4-(trifluoromethyl)cyclohexyl)vinyl)picolinamide]
2530 nM | 700 nM | 170 nM | 370 nM | COc1cnc(C(=O)NCc2cccc(CC(=O)NCCCCC(=O)N[C@H](C(=O)N3C[C@H](O)C[C@H]3C(=O)NCc3ccc(-c4scnc4C)cc3)C(C)(C)C)c2)cc1/C=C/[C@H]1CC[C@H](C(F)(F)F)CC1 [Compound 11, N-(3-(2-((5-(((S)-1-((2S,4R)-4-Hydroxy-2-((4-(4-methylthiazol-5-yl)benzyl)carbamoyl)pyrrolidin-1-yl)-3,3-dimethyl-1-oxobutan-2-yl)amino)-5-oxopentyl)amino)-2-oxoethyl)benzyl)-5-methoxy-4-((E)-2-(trans-4-(trifluoromethyl)cyclohexyl)vinyl)picolinamide]
1830 nM | 280 nM | 70 nM | 200 nM | COc1cnc(C(=O)NCc2cccc(CC(=O)N(C)CCOCCOCCOCCOCCOc3ccc4c(c3)C(=O)N(C3CCC(=O)NC3=O)C4=O)c2)cc1/C=C/[C@H]1CC[C@H](C(F)(F)F)CC1 (stereo partly drawn) [Compound 4, N-(3-(17-((2-(2,6-Dioxopiperidin-3-yl)-1,3-dioxoisoindolin-5-yl)oxy)-3-methyl-2-oxo-6,9,12,15-tetraoxa-3-azaheptadecyl)benzyl)-5-methoxy-4-((E)-2-(trans-4-(trifluoromethyl)cyclohexyl)vinyl)picolinamide]
